In US7175844B2, “Methods of modulating fibrosis” (Joslin Diabetes Center, Inc., priority 2000, dated 2007):
Like-named read-outs stand apart in the source and are kept apart here.

What was measured:
[1] = tested on: VEGF-induced CTGF mRNA expression; test: Effect on VEGF-induced CTGF mRNA expression in BREC; assay type: cell-based, bovine
Protocol: (§1) H) Northern Blot Analysis—Total RNA was isolated using acid-guanidinium thiocyanate, and Northern blot analysis was performed. Total RNA (20 μg) was electrophoresed through 1% formaldehyde-agarose gels and then transferred to a nylon membrane. ^32P-Labeled cDNA probes were generated by use of labeling kits (Megaprime DNA labeling systems, Amersham Pharmacia Biotech). After ultraviolet cross-linking using a UV cross-linker (Stratagene, La Jolla, Calif.), blots were pre-hybridized, hybridized, and washed in 0.5×SSC, 5% SDS at 65° C. with 4 changes over 1 h. All signals were analyzed using a PhosphorImager, and lane loading differences were normalized.
(§2) I) Analysis of CTGF mRNA Half-life—CTGF mRNA half-life experiments were carried out using BREC and BRPC. […] Transcription was inhibited by the addition of actinomycin D (5 μg/ml).

[2] = tested on: VEGF-induced CTGF mRNA expression; test: Effect on VEGF-induced CTGF mRNA expression in BRPC; assay type: cell-based, bovine; details: for effect on VEGF-induced CTGF mRNA expression: pretreatment GF 109203X 1 μM or PD98059 20 μM
Protocol: as §1, §2

[3] = tested on: CTGF mRNA; test: CTGF mRNA expression by Northern blot analysis in BREC; assay type: cell-based, bovine; details: for CTGF mRNA levels increase (comparative study): VEGF 25 ng/ml, TGF-β1 10 ng/ml
Protocol: (§3) Since BREC and BRPC may express both KDR and Flt1, we examined the effects of P1GF, a Flt1-specific ligand, on the induction of CTGF gene expression in vascular cells.
(§4) B) Cell Culture—Primary cultures of bovine retinal endothelial cells (BREC) and pericytes (BRPC) were isolated by homogenization and a series of filtration steps as described previously. BREC were subsequently cultured with endothelial cell basal medium supplemented with 10% plasma-derived horse serum, 50 mg/liter heparin, and 50 μg/ml endothelial cell growth factor. BRPC were cultured in Dulbecco's modified Eagle's medium with 5.5 mM glucose and 20% fetal bovine serum. Cells were cultured in 5% CO2 at 37° C., and media were changed every 3 days. Cells were characterized for their homogeneity by immunoreactivity with anti-factor VIII antibody for BREC and with monoclonal antibody 3G5 for BRPC. […] Only cells from passages 2 through 7 were used for the experiments.
as §1

[4] = tested on: CTGF protein; test: CTGF protein expression by Western blot analysis in BREC; assay type: cell-based, bovine; details: for CTGF protein expression increase: VEGF 25 ng/ml, TGF-β1 10 ng/ml
Protocol: (§5) E) Western Blot Analysis—Immunoprecipitated proteins or 30 μg of total cell lysates were subjected to SDS-gel electrophoresis and electrotransferred to nitrocellulose membrane (Bio-Rad). The membrane was soaked in blocking buffer (phosphate-buffered saline containing 0.1% Tween 20 and 5% bovine serum albumin) for 1 h at room temperature and incubated with primary antibody overnight at 4° C. followed by incubation with horseradish peroxidase-conjugated secondary antibody (Amersham Pharmacia Biotech). Visualization was performed using the enhanced chemiluminescence detection system (ECL, Amersham Pharmacia Biotech) per the manufacturer's instructions.

[5] = tested on: CTGF mRNA; test: CTGF mRNA expression by Northern blot analysis in BRPC; assay type: cell-based, bovine; details: for CTGF mRNA levels, maximum increase: 25 ng/ml, after 9 h
Protocol: as §3, §4, §1

[6] = tested on: Akt
Protocol: as §5

[7] = tested on: CTGF protein; details: BRPC, 25 ng/ml, after 10 h
Protocol: as §5

[8] = tested on: Erk
Protocol: as §5

[9] = target: T1, KDR (Bos taurus, UniProt A0AAA9SPC9); test: Immunoblot of KDR immunoprecipitates from BREC (phosphotyrosine, PI3-kinase p85); assay type: cell-based, bovine
T1 construct: endogenous in cells; host or cells: primary bovine retinal endothelial cells (BREC)
T1 sequence (A0AAA9SPC9 20-1356): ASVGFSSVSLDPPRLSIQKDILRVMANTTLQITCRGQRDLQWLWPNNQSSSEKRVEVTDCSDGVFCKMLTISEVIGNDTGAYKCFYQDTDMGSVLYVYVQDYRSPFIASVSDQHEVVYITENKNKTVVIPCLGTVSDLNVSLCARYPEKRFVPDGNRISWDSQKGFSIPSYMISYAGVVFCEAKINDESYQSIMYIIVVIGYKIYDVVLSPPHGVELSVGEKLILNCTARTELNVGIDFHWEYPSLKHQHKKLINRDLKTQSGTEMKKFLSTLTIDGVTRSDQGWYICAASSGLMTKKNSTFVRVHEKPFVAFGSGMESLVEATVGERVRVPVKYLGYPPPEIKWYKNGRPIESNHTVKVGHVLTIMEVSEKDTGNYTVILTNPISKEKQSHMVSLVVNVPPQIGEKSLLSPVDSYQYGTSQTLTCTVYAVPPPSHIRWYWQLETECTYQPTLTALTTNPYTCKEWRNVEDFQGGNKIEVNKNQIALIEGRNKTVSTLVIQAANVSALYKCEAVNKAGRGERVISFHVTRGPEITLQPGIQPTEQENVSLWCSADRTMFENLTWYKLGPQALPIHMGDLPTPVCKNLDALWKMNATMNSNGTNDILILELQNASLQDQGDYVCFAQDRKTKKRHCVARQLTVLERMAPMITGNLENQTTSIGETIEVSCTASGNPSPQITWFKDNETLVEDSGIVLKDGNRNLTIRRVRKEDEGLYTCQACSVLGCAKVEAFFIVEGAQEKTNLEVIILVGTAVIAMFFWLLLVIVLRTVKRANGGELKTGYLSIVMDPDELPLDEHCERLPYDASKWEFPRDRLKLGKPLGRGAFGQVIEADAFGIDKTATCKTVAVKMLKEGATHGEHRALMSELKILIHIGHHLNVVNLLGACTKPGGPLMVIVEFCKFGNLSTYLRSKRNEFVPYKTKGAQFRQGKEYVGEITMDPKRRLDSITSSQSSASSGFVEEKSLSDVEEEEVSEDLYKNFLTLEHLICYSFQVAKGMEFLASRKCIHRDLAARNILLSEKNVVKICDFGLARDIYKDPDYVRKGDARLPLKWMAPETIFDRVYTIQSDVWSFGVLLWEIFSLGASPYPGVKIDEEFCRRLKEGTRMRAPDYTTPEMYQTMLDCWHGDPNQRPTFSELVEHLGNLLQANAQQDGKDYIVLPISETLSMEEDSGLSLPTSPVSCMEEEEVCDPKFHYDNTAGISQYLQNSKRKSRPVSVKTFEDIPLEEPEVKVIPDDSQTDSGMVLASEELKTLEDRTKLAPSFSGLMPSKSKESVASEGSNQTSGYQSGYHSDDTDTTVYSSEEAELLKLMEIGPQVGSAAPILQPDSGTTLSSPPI
Protocol: (§6) D) Immunoprecipitation—Cells were washed three times with cold phosphate-buffered saline and solubilized in 200 μl of lysis buffer (1% Triton X-100, 50 mmol/liter HEPES, 10 mmol/liter EDTA, 10 mmol/liter sodium pyrophosphate, 100 mmol/liter sodium fluoride, 1 mmol/liter sodium orthovanadate, 1 μg/ml aprotinin, 1 μg/ml leupeptin, and 2 mmol/liter phenylmethylsulfonyl fluoride). After centrifugation at 12,000 rpm for 10 min, 1.0 mg of protein was subjected to immunoprecipitation. To clear the protein extract, protein A-Sepharose (20 μl of a 50% suspension) was added to the cell lysates, after which they were incubated for 1 h, followed by centrifugation and collection of the supernatant. A specific rabbit anti-KDR or Flt1 antibody was added and rocked at 4° C. for 2 h; 20 μl of protein A-Sepharose was then added, and the sample was rocked for another 2 h at 4° C. For denaturation, protein A-Sepharose antigen-antibody conjugates were separated by centrifugation, washed five times, and boiled for 3 min in Laemmli sample buffer.
as §5

[10] = target: T2, Flt1 (Bos taurus, UniProt F1MDD9); test: Immunoblot of Flt1 immunoprecipitates from BRPC (phosphotyrosine, PI3-kinase p85); assay type: cell-based, bovine
T2 construct: endogenous in cells; host or cells: primary bovine retinal pericytes (BRPC)
T2 sequence (F1MDD9 1-1251): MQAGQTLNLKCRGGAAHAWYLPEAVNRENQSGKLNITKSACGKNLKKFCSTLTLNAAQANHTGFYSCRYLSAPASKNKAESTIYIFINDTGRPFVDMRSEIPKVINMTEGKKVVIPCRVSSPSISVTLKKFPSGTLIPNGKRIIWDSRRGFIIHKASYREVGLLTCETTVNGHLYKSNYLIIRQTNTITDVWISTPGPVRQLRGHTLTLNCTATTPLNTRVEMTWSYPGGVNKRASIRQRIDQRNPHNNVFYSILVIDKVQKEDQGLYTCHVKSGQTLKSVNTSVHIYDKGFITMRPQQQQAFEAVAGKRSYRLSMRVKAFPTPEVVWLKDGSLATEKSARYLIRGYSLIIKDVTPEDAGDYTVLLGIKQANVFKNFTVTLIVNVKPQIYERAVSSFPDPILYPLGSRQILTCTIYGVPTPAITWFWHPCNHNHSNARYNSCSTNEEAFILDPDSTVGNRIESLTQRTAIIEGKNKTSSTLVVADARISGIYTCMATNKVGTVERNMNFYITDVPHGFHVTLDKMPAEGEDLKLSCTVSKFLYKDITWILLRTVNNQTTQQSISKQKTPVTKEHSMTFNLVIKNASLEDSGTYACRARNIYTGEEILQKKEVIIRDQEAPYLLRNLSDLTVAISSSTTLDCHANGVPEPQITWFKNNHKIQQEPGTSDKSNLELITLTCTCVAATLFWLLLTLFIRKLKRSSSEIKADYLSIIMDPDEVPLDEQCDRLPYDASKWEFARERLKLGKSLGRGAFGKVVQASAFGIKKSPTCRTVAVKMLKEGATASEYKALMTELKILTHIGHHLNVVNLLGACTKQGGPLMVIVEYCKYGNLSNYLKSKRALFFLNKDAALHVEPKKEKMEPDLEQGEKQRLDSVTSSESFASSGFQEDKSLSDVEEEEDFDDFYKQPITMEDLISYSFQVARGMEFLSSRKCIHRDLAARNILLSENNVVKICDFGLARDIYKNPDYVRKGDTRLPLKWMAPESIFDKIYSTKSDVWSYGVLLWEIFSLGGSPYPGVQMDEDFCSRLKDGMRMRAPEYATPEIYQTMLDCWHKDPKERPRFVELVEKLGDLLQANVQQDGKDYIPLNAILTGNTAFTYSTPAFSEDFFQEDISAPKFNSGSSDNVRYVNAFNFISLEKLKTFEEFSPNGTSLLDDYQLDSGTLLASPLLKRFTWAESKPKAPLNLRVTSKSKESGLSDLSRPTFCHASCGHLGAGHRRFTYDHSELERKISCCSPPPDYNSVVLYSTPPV
Protocol: as §6

[11] = target: Flt1 (Homo sapiens, UniProt P17948); details: known value; cited from earlier work
Sequence of Flt1 (Homo sapiens, UniProt P17948) (P17948 27-1338, species assumed): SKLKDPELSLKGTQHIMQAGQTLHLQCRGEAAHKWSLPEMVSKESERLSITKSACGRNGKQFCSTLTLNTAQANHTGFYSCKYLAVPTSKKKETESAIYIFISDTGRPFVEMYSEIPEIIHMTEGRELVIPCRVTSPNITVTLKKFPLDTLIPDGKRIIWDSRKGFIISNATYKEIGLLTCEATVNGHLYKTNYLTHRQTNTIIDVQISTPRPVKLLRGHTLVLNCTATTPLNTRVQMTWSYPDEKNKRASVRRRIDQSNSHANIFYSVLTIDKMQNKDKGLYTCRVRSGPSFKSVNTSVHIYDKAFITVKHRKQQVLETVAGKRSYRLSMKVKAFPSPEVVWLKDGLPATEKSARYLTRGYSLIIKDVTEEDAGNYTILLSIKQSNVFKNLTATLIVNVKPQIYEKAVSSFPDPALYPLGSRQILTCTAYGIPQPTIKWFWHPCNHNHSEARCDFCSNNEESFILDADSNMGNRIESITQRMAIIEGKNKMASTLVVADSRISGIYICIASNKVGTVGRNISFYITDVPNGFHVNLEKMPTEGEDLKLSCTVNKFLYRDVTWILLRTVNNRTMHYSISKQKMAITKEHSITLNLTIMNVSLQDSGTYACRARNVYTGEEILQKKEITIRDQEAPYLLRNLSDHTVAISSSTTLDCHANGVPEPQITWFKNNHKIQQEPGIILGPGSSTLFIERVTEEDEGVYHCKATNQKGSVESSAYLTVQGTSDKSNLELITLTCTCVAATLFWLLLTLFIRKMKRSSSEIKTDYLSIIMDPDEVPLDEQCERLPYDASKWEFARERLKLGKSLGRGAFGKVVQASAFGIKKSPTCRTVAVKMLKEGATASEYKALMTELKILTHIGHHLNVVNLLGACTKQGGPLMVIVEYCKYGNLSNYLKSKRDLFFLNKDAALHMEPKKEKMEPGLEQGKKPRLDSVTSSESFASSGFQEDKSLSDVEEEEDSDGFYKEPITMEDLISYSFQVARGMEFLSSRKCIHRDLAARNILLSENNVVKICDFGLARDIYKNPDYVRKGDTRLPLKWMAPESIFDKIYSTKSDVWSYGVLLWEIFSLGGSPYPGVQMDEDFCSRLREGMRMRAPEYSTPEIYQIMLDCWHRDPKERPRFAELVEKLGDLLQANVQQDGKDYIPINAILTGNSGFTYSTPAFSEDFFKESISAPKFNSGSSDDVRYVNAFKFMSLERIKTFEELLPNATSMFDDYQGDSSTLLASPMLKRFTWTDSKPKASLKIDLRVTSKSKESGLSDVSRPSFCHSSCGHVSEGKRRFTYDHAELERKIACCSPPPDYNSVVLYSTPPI

[12] = target: Flt1 (VEGFR1) (bovine); test: cell-based or functional assay
[13] = target: KDR/Flk1 (VEGFR2) (bovine); test: cell-based or functional assay
[14] = cycloheximide 10 μg/ml, VEGF 25 ng/ml, 6 h
[15] = inhibitor pretreatment (wortmannin 100 nM), VEGF 25 ng/ml 6 h
[16] = VEGF 25 ng/ml + cycloheximide 10 μg/ml, 6 h

Molecule: C[C@@H]1C[C@@H]([C@H](O)CC2CC(=O)NC(=O)C2)C(=O)[C@@H](C)C1 [Cycloheximide, cycloheximide]
- effect on VEGF-induced increase of CTGF mRNA [1, 14]: did not prevent
- effect on VEGF-induced increase of CTGF mRNA [2, 14]: did not prevent

Molecule: CN(C)CCCn1cc(C2=C(c3c[nH]c4ccccc34)C(=O)NC2=O)c2ccccc21 [GF 109203X]
- effect on VEGF-induced CTGF mRNA expression ([1]; pretreatment GF 109203X 1 μM or PD98059 20 μM, VEGF 25 ng/ml 6 h): Neither GF 109203X nor PD98059 had significant effects
- effect on VEGF-induced CTGF mRNA expression ([2]; VEGF 25 ng/ml 6 h): Neither GF 109203X nor PD98059 had significant effects

Molecule: COc1cccc(-c2cc(=O)c3ccccc3o2)c1N [PD98059]
- effect on VEGF-induced CTGF mRNA expression ([2]; VEGF 25 ng/ml 6 h): Neither GF 109203X nor PD98059 had significant effects

Molecule: COC[C@H]1OC(=O)c2coc3c2[C@@]1(C)C1=C(C3=O)[C@@H]2CCC(=O)[C@@]2(C)C[C@H]1OC(C)=O [wortmannin]
- inhibition of the effects of VEGF on CTGF mRNA expression [1, 15]: 88±6.5%
- inhibition of the effects of VEGF on CTGF mRNA expression [2, 15]: 78±22%

Molecule: TGF-β1: transforming growth factor-β1, from R & D Systems
- CTGF mRNA levels increase (comparative study) [3]: 3.3±0.5 fold
- CTGF protein expression increase [4]: 2.8±0.8 fold

Molecule: VEGF
- CTGF mRNA levels, maximum increase ([3]; 25 ng/ml, after 6 h): 3.1±0.70 fold
- concentration of maximal increase of CTGF mRNA ([3]; 6 h of stimulation): 25 ng/mL
- lowest concentration with significant increase of CTGF mRNA ([3]; 6 h of stimulation): 0.25 ng/mL
- CTGF mRNA increase with cycloheximide, compared with cycloheximide alone [3, 16]: 2.4±0.41 fold
- CTGF mRNA levels increase (comparative study) [3]: 3.0±0.3 fold
- CTGF mRNA levels, maximum increase [5]: 2.0±0.22 fold
- concentration of maximal increase of CTGF mRNA ([5]; 6 h of stimulation): 25 ng/mL
- lowest concentration with significant increase of CTGF mRNA ([5]; 6 h of stimulation): 0.25 ng/mL
- CTGF mRNA increase with cycloheximide, compared with cycloheximide alone [5, 16]: 2.5±0.40 fold
- level of CTGF protein ([4]; 25 ng/ml, after 10 h): increased
- CTGF protein expression increase [4]: 2.5±0.4 fold
- phosphorylation of Akt ([6]; BREC): 3.1 fold
- phosphorylation of Akt ([6]; BRPC): 2.6 fold
- level of CTGF protein [7]: increased
- phosphorylation of Erk ([8]; BREC): 5.8 fold
- Erk phosphorylation ([8]; BRPC): No effect
- interactions of KDR and p85 subunit of PI3-kinase [9]: promoted
- tyrosine phosphorylation of KDR [9]: promoted
- interactions of Flt1 and p85 subunit of PI3-kinase [10]: increased
- tyrosine phosphorylation of Flt1 [10]: increased
- Kd [11]: 0.01 to 0.1 nM

Molecule: Vascular endothelial growth factor (VEGF) (ligand)
- CTGF mRNA (Northern blot, BRPC, 25 ng/ml VEGF, maximum after 9 h) [12]: 2 fold
- CTGF mRNA (Northern blot, BREC, 25 ng/ml VEGF, maximum after 6 h) [13]: 3.1 fold

Molecule: placenta growth factor (P1GF) (ligand)
- CTGF mRNA (Northern blot, BRPC, 25 ng/ml P1GF, peak after 9 h) [12]: 1.9 fold

B1: P1GF: placenta growth factor, a Flt1 receptor-specific ligand, from R & D Systems (protein, UniProt P49763 19-221, looked up)
Placenta growth factor: LPAVPPQQWALSAGNGSSEVEVVPFQEVWGRSYCRALERLVDVVSEYPSEVEHMFSPSCVSLLRCTGCCGDENLHCVPVETANVTMQLLKIRSGDRPSYVELTFSQHVRCECRHSPGRQSPDMPGDFRADAPSFLPPRRSLPMLFRMEWGCALTGSQSAVWPSSPVPEEIPRMHPGRNGKKQQRKPLREKMKPERCGDAVPRR
- CTGF mRNA levels after stimulation ([3]; 25 ng/ml): not affected
- CTGF mRNA levels, maximum increase [5]: 1.9±0.30 fold
- interactions of KDR and p85 subunit of PI3-kinase [9]: not
- tyrosine phosphorylation of KDR [9]: not
- interactions of Flt1 and p85 subunit of PI3-kinase [10]: increased
- tyrosine phosphorylation of Flt1 [10]: increased
